#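 Exposure lasted 48 hours, with cells grown in 96-well plates and compounds tested at five concentrations. GI50 = concentration required for 50% inhibition of growth.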 The source made the active and inactive calls. Cut-off read from the data, not from the text of the source: active = GI50 up to about 1.1 µM and inactive = higher.
# Key:
# Experiment in all cases: NCI-60 cell line screen, 48 h
# LXFL 529 = test system: LXFL 529
# NCI-H460 = test system: NCI-H460
# SNB-75 = test system: SNB-75
# Malme-3M = test system: Malme-3M
# K562 = test system: K562
# UACC-257 = test system: UACC-257
# OVCAR-4 = test system: OVCAR-4
# SK-OV-3 = test system: SK-OV-3
# RXF 393 = test system: RXF 393
# SK-MEL-28 = test system: SK-MEL-28
# SK-MEL-5 = test system: SK-MEL-5
# DMS-114 = test system: DMS-114
# CAKI-1 = test system: CAKI-1
# CCRF-CEM = test system: CCRF-CEM
# SF-295 = test system: SF-295
# DLD-1 = test system: DLD-1
# UO-31 = test system: UO-31
# UACC-62 = test system: UACC-62
# RPMI-8226 = test system: RPMI-8226
# A549 = test system: A549
# U-251 = test system: U-251
# HCT-15 = test system: HCT-15
# A498 = test system: A498
# TK-10 = test system: TK-10
# DMS-273 = test system: DMS-273
# M14 = test system: M14
# 786-0 = test system: 786-0
# M19-MEL = test system: M19-MEL
# KM12 = test system: KM12
# OVCAR-3 = test system: OVCAR-3
# SNB-78 = test system: SNB-78
# HL-60 = test system: HL-60
# SF-539 = test system: SF-539
# IGROV-1 = test system: IGROV-1
# EKVX = test system: EKVX
# ACHN = test system: ACHN
# OVCAR-8 = test system: OVCAR-8
# MOLT-4 = test system: MOLT-4
# KM-20L2 = test system: KM-20L2
# SW-620 = test system: SW-620
# HCC 2998 = test system: HCC 2998
# NCI-H226 = test system: NCI-H226
# SK-MEL-2 = test system: SK-MEL-2
# NCI-H23 = test system: NCI-H23
# OVCAR-5 = test system: OVCAR-5
# XF498 = test system: XF498
# HCT-116 = test system: HCT-116
# HOP-62 = test system: HOP-62
# HT-29 = test system: HT-29
# RXF 631 = test system: RXF 631
# SN12C = test system: SN12C
# HOP-18 = test system: HOP-18
# NCI-H522 = test system: NCI-H522
# SR = test system: SR
# SNB-19 = test system: SNB-19
# HOP-92 = test system: HOP-92
# COLO 205 = test system: COLO 205
# SF-268 = test system: SF-268
# LOX IMVI = test system: LOX IMVI
structure (smiles),measurement,setting,value
N#[N+]c1ccccc1Sc1ccc(Cl)cc1,GI50,LXFL 529,> 100 µM (inactive)
same,GI50,NCI-H460,> 100 µM (inactive)
same,GI50,SNB-75,> 100 µM (inactive)
same,GI50,Malme-3M,> 100 µM (inactive)
same,GI50,K562,75 µM (inactive)
same,GI50,UACC-257,> 100 µM (inactive)
same,GI50,OVCAR-4,> 100 µM (inactive)
same,GI50,SK-OV-3,> 100 µM (inactive)
same,GI50,RXF 393,32.2 µM (inactive)
same,GI50,SK-MEL-28,> 100 µM (inactive)
same,GI50,SK-MEL-5,61.2 µM (inactive)
same,GI50,DMS-114,48.1 µM (inactive)
same,GI50,CAKI-1,> 100 µM (inactive)
same,GI50,CCRF-CEM,89.9 µM (inactive)
same,GI50,SF-295,> 100 µM (inactive)
same,GI50,DLD-1,> 100 µM (inactive)
same,GI50,UO-31,> 100 µM (inactive)
same,GI50,UACC-62,> 100 µM (inactive)
same,GI50,RPMI-8226,52.4 µM (inactive)
same,GI50,A549,> 100 µM (inactive)
same,GI50,U-251,> 100 µM (inactive)
same,GI50,HCT-15,> 100 µM
same,GI50,A498,> 100 µM (inactive)
same,GI50,TK-10,> 100 µM (inactive)
same,GI50,DMS-273,> 100 µM (inactive)
same,GI50,M14,> 100 µM (inactive)
same,GI50,786-0,> 100 µM (inactive)
same,GI50,M19-MEL,> 100 µM (inactive)
same,GI50,KM12,> 100 µM (inactive)
same,GI50,OVCAR-3,> 100 µM (inactive)
same,GI50,SNB-78,> 100 µM (inactive)
same,GI50,HL-60,94 µM (inactive)
same,GI50,SF-539,> 100 µM (inactive)
same,GI50,IGROV-1,82.8 µM (inactive)
same,GI50,EKVX,> 100 µM (inactive)
same,GI50,ACHN,> 100 µM (inactive)
same,GI50,OVCAR-8,> 100 µM (inactive)
same,GI50,MOLT-4,64.7 µM (inactive)
same,GI50,KM-20L2,> 100 µM (inactive)
same,GI50,SW-620,> 100 µM (inactive)
same,GI50,HCC 2998,> 100 µM (inactive)
same,GI50,NCI-H226,76.9 µM (inactive)
same,GI50,SK-MEL-2,> 100 µM (inactive)
same,GI50,NCI-H23,47.8 µM (inactive)
same,GI50,OVCAR-5,> 100 µM (inactive)
same,GI50,XF498,> 100 µM (inactive)
same,GI50,HCT-116,74.3 µM (inactive)
same,GI50,HOP-62,40.4 µM (inactive)
same,GI50,HT-29,> 100 µM (inactive)
same,GI50,RXF 631,67.9 µM (inactive)
O=c1cc(-c2ccccc2)oc2cc(OCCCCCCCCCCOc3ccc4c(=O)cc(-c5ccccc5)oc4c3)ccc12,GI50,LXFL 529,> 100 µM (inactive)
same,GI50,SNB-75,56.1 µM (inactive)
same,GI50,SN12C,42.5 µM (inactive)
same,GI50,Malme-3M,> 100 µM (inactive)
same,GI50,K562,> 100 µM (inactive)
same,GI50,HOP-18,> 100 µM (inactive)
same,GI50,NCI-H522,> 100 µM (inactive)
same,GI50,UACC-257,> 100 µM (inactive)
same,GI50,OVCAR-4,> 100 µM (inactive)
same,GI50,SK-OV-3,> 100 µM (inactive)
same,GI50,SK-MEL-28,> 100 µM (inactive)
same,GI50,SK-MEL-5,> 100 µM (inactive)
same,GI50,DMS-114,> 100 µM (inactive)
same,GI50,CAKI-1,> 100 µM (inactive)
same,GI50,CCRF-CEM,> 100 µM (inactive)
same,GI50,SR,> 100 µM (inactive)
same,GI50,SF-295,> 100 µM (inactive)
same,GI50,SNB-19,> 100 µM (inactive)
same,GI50,UACC-62,> 100 µM (inactive)
same,GI50,RPMI-8226,> 100 µM (inactive)
same,GI50,A549,> 100 µM (inactive)
same,GI50,U-251,> 100 µM (inactive)
same,GI50,HCT-15,> 100 µM
same,GI50,HOP-92,> 100 µM (inactive)
same,GI50,DMS-273,> 100 µM (inactive)
same,GI50,M14,> 100 µM (inactive)
same,GI50,786-0,> 100 µM (inactive)
same,GI50,M19-MEL,> 100 µM (inactive)
same,GI50,KM12,> 100 µM (inactive)
same,GI50,OVCAR-3,> 100 µM (inactive)
same,GI50,SNB-78,> 100 µM (inactive)
same,GI50,HL-60,> 100 µM (inactive)
same,GI50,SF-539,> 100 µM (inactive)
same,GI50,IGROV-1,> 100 µM (inactive)
same,GI50,EKVX,> 100 µM (inactive)
same,GI50,COLO 205,> 100 µM (inactive)
same,GI50,ACHN,> 100 µM (inactive)
same,GI50,OVCAR-8,> 100 µM (inactive)
same,GI50,MOLT-4,> 100 µM (inactive)
same,GI50,KM-20L2,> 100 µM (inactive)
same,GI50,SW-620,> 100 µM (inactive)
same,GI50,HCC 2998,> 100 µM (inactive)
same,GI50,SK-MEL-2,> 100 µM (inactive)
same,GI50,NCI-H23,> 100 µM (inactive)
same,GI50,OVCAR-5,> 100 µM (inactive)
same,GI50,XF498,> 100 µM (inactive)
same,GI50,HCT-116,> 100 µM (inactive)
same,GI50,HOP-62,> 100 µM (inactive)
same,GI50,HT-29,> 100 µM (inactive)
same,GI50,RXF 631,> 100 µM (inactive)
CC(C)(C)C(=O)ON1N=NC2C3CC(OCc4ccccc4)(OCc4ccccc4)C(O3)C21 (stereo unspecified),GI50,LXFL 529,11.1 µM (inactive)
same,GI50,NCI-H460,24 µM (inactive)
same,GI50,SNB-75,24.1 µM (inactive)
same,GI50,SN12C,19.3 µM (inactive)
same,GI50,SF-268,29.1 µM (inactive)
same,GI50,Malme-3M,16.3 µM (inactive)
same,GI50,K562,11.7 µM (inactive)
same,GI50,HOP-18,24.2 µM (inactive)
same,GI50,UACC-257,13.7 µM (inactive)
same,GI50,OVCAR-4,22.6 µM (inactive)
same,GI50,SK-OV-3,53.1 µM (inactive)
same,GI50,RXF 393,15.8 µM (inactive)
same,GI50,SK-MEL-28,19.1 µM (inactive)
same,GI50,SK-MEL-5,15.6 µM (inactive)
same,GI50,CAKI-1,31 µM (inactive)
same,GI50,CCRF-CEM,4.4 µM (inactive)
same,GI50,SF-295,22.1 µM (inactive)
same,GI50,DLD-1,15.6 µM (inactive)
same,GI50,UO-31,22.4 µM (inactive)
same,GI50,UACC-62,18.5 µM (inactive)
same,GI50,RPMI-8226,7.38 µM (inactive)
same,GI50,A549,32.7 µM (inactive)
same,GI50,U-251,16.9 µM (inactive)
same,GI50,HCT-15,20.1 µM
same,GI50,A498,35.7 µM (inactive)
same,GI50,HOP-92,12 µM (inactive)
same,GI50,DMS-273,22.3 µM (inactive)
same,GI50,M14,26.4 µM (inactive)
same,GI50,786-0,18.5 µM (inactive)
same,GI50,M19-MEL,15.8 µM (inactive)
same,GI50,KM12,23.6 µM (inactive)
same,GI50,OVCAR-3,16.9 µM (inactive)
same,GI50,SNB-78,26 µM (inactive)
same,GI50,HL-60,3.79 µM (inactive)
same,GI50,SF-539,16.3 µM (inactive)
same,GI50,IGROV-1,35.1 µM (inactive)
same,GI50,COLO 205,18.7 µM (inactive)
same,GI50,ACHN,27.7 µM (inactive)
same,GI50,MOLT-4,3.41 µM (inactive)
same,GI50,KM-20L2,28.4 µM (inactive)
same,GI50,SW-620,14.9 µM (inactive)
same,GI50,HCC 2998,14.2 µM (inactive)
same,GI50,NCI-H226,17.7 µM (inactive)
same,GI50,SK-MEL-2,19.1 µM (inactive)
same,GI50,NCI-H23,19.6 µM (inactive)
same,GI50,OVCAR-5,33.6 µM (inactive)
same,GI50,LOX IMVI,15.4 µM (inactive)
same,GI50,XF498,18.9 µM (inactive)
same,GI50,HOP-62,28.3 µM (inactive)
same,GI50,HT-29,22.3 µM (inactive)
same,GI50,RXF 631,24.7 µM (inactive)
